In paper PMC11822212, “High-throughput screening identifies Aurora kinase B as a critical therapeutic target for Merkel cell carcinoma” (Nature Communications, 2025):

Assays:
MKL-2 cells (VP-MCC) = assay: qHTS cell viability (CellTiter-Glo, 72 h; primary and follow-up small molecule screen); format: cell-based, human
WAGA cells (VP-MCC) = assay: as above; format: cell-based, human
[1] = system: MCC cell lines (WAGA, MKL-1, MKL-2, MCC13, MCC26, UISO); assay: qHTS cell viability, all six MCC cell lines as a group (mean AUC, MCC.avg); format: cell-based, human; conditions: mean AUC of six MCC cell lines
[2] = system: control cell lines (HACAT, HEK293T, CRL-7250, NIH-3T3); assay: qHTS cell viability, control cell lines as a group (mean AUC, Control.avg); format: cell-based; conditions: mean AUC of control cell lines
[3] = system: six MCC cell lines and four control cell lines; assay: qHTS cell viability, all 10 cell lines screened; format: cell-based
NIH-3T3 cells = assay: qHTS cell viability (CellTiter-Glo, 72 h; primary screen), control cell line; format: cell-based, mouse
HACAT cells = assay: as above; format: cell-based, human
UISO cells (VN-MCC) = assay: qHTS cell viability (CellTiter-Glo, 72 h; primary and follow-up small molecule screen); format: cell-based, human
[4] = system: VP-MCC cell lines (WAGA, MKL-1, MKL-2); assay: qHTS cell viability, VP-MCC cell lines as a group (mean AUC, VP.MCC.avg); format: cell-based, human; conditions: for VP-MCC_Avg_AUC: mean AUC of VP-MCC cell lines
CRL-7250 cells = assay: qHTS cell viability (CellTiter-Glo, 72 h; primary screen), control cell line; format: cell-based
MCC13 cells (VN-MCC) = assay: qHTS cell viability (CellTiter-Glo, 72 h; primary and follow-up small molecule screen); format: cell-based, human
MCC26 cells (VN-MCC) = assay: as above; format: cell-based, human
HEK293T cells = assay: qHTS cell viability (CellTiter-Glo, 72 h; primary screen), control cell line; format: cell-based, human
[5] = system: VN-MCC cell lines (MCC13, MCC26, UISO); assay: qHTS cell viability, VN-MCC cell lines as a group (mean AUC, VN.MCC.avg); format: cell-based, human; conditions: for VN-MCC_Avg_AUC: mean AUC of VN-MCC cell lines
MKL-1 cells (VP-MCC) = assay: qHTS cell viability (CellTiter-Glo, 72 h; primary and follow-up small molecule screen); format: cell-based, human
[6] = MIPE library, 11-point DRC, sheet S2E
[7] = MIPE library, Control AUC minus MCC AUC (therapeutic window), sheet S2E
[8] = MIPE library, 11-point DRC, control cell line, sheet S2E
[9] = MIPE library, Control AUC minus VP-MCC AUC (therapeutic window), sheet S2E
[10] = MIPE library, Control AUC minus VN-MCC AUC (therapeutic window), sheet S2E
[11] = area under the dose-response curve, MKL-2 cells, AUC<450 = reduced viability
[12] = area under the dose-response curve, WAGA cells, AUC<450 = reduced viability
[13] = area under the dose-response curve, NIH3T3 control cells, AUC<450 = reduced viability
[14] = area under the dose-response curve, HACAT control cells, AUC<450 = reduced viability
[15] = area under the dose-response curve, UISO cells, AUC<450 = reduced viability
[16] = area under the dose-response curve, CRL7250 control cells, AUC<450 = reduced viability
[17] = area under the dose-response curve, MCC13 cells, AUC<450 = reduced viability
[18] = area under the dose-response curve, MCC26 cells, AUC<450 = reduced viability
[19] = area under the dose-response curve, HEK293T control cells, AUC<450 = reduced viability
[20] = NPC library, qHTS dose-response AUC, MKL2
[21] = NPC library, qHTS dose-response AUC, WAGA
[22] = NPC library, therapeutic window: Control avg AUC minus MCC avg AUC
[23] = NPC library, qHTS dose-response AUC, NIH3T3 control
[24] = NPC library, qHTS dose-response AUC, HACAT control
[25] = NPC library, qHTS dose-response AUC, UISO
[26] = NPC library, therapeutic window: Control avg AUC minus VP-MCC avg AUC
[27] = NPC library, qHTS dose-response AUC, CRL7250 control
[28] = NPC library, qHTS dose-response AUC, MCC13
[29] = NPC library, qHTS dose-response AUC, MCC26
[30] = NPC library, qHTS dose-response AUC, HEK293T control
[31] = NPC library, therapeutic window: Control avg AUC minus VN-MCC avg AUC
[32] = NPC library, qHTS dose-response AUC, MKL1

O=C(CCCCCCC(=O)Nc1cccnc1)NO [Pyroxamide]
MKL2_AUC (MKL-2 cells (VP-MCC); [6]): 371.322 | WAGA_AUC (WAGA cells (VP-MCC); [6]): 346.535 | MCC_Avg_AUC ([1]; MIPE library, sheet S2E): 413.478 | Control_Avg_AUC ([2]; MIPE library, sheet S2E): 453.86 | Control-MCC [3, 7]: 40.3813 | NIH3T3_AUC (NIH-3T3 cells; [8]): 462.753 | HACAT_AUC (HACAT cells; [8]): 452.893 | UISO_AUC (UISO cells (VN-MCC); [6]): 440.831 | Control-VP-MCC [4, 9]: 81.0267 | VP-MCC_Avg_AUC ([4]; MIPE library, sheet S2E): 372.833 | CRL7250_AUC (CRL-7250 cells; [8]): 459.817 | MCC13_AUC (MCC13 cells (VN-MCC); [6]): 454.868 | MCC26_AUC (MCC26 cells (VN-MCC); [6]): 466.672 | HEK293T_AUC (HEK293T cells; [8]): 439.975 | Control-VN-MCC [5, 10]: -0.2641 | VN-MCC_Avg_AUC ([5]; MIPE library, sheet S2E): 454.124 | MKL1_AUC (MKL-1 cells (VP-MCC); [6]): 400.642

CC(=O)SCC(Cc1ccccc1)C(=O)NCC(=O)OCc1ccccc1 (stereo not shown) [Racecadotril]
MKL2_AUC (MKL-2 cells (VP-MCC); [6]): 282.974 | MKL2_AUC (MKL-2 cells (VP-MCC); [11]): 385.069 | WAGA_AUC (WAGA cells (VP-MCC); [6]): 280.978 | WAGA_AUC (WAGA cells (VP-MCC); [12]): 389.872 | MCC_Avg_AUC ([1]; MIPE library, sheet S2E): 374.417 | Control_Avg_AUC ([2]; MIPE library, sheet S2E): 471.369 | Control-MCC [3, 7]: 96.952 | NIH3T3_AUC (NIH-3T3 cells; [8]): 475.653 | NIH3T3_AUC (NIH-3T3 cells; [13]): 480.677 | HACAT_AUC (HACAT cells; [8]): 479.748 | HACAT_AUC (HACAT cells; [14]): 454.884 | UISO_AUC (UISO cells (VN-MCC); [6]): 428.805 | UISO_AUC (UISO cells (VN-MCC); [15]): 451.995 | Control-VP-MCC [4, 9]: 182.226 | VP-MCC_Avg_AUC ([4]; MIPE library, sheet S2E): 289.144 | CRL7250_AUC (CRL-7250 cells; [8]): 474.01 | CRL7250_AUC (CRL-7250 cells; [16]): 474.054 | MCC13_AUC (MCC13 cells (VN-MCC); [6]): 461.58 | MCC13_AUC (MCC13 cells (VN-MCC); [17]): 485.077 | MCC26_AUC (MCC26 cells (VN-MCC); [6]): 488.688 | MCC26_AUC (MCC26 cells (VN-MCC); [18]): 492.456 | HEK293T_AUC (HEK293T cells; [8]): 456.066 | HEK293T_AUC (HEK293T cells; [19]): 472.387 | Control-VN-MCC [5, 10]: 11.6784 | VN-MCC_Avg_AUC ([5]; MIPE library, sheet S2E): 459.691 | MKL1_AUC (MKL-1 cells (VP-MCC); [6]): 303.479 | MKL1_AUC (MKL-1 cells (VP-MCC); area under the dose-response curve, MKL-1 cells, AUC<450 = reduced viability): 393.26

CCCC(=O)OC[C@@H](OC(=O)CCC)[C@@H](OC(=O)CCC)[C@H](Cn1c2nc(=O)[nH]c(=O)c-2nc2cc(C)c(C)cc21)OC(=O)CCC [Riboflavin tetrabutyrate]
MKL2_AUC (MKL-2 cells (VP-MCC); [20]): 430.163 | MKL2_AUC (MKL-2 cells (VP-MCC); [11]): 430.163 | WAGA_AUC (WAGA cells (VP-MCC); [21]): 418.091 | WAGA_AUC (WAGA cells (VP-MCC); [12]): 418.091 | MCC_Avg_AUC ([1]; NPC library): 456.689 | Control_Avg_AUC ([2]; NPC library): 472.698 | Control-MCC [3, 22]: 16.0097 | NIH3T3_AUC (NIH-3T3 cells; [23]): 473.017 | NIH3T3_AUC (NIH-3T3 cells; [13]): 473.017 | HACAT_AUC (HACAT cells; [24]): 497.126 | HACAT_AUC (HACAT cells; [14]): 497.126 | UISO_AUC (UISO cells (VN-MCC); [25]): 492.96 | UISO_AUC (UISO cells (VN-MCC); [15]): 492.96 | VP-MCC_Avg_AUC ([4]; NPC library): 421.656 | Control-VP-MCC [4, 26]: 51.0422 | CRL7250_AUC (CRL-7250 cells; [27]): 470.473 | CRL7250_AUC (CRL-7250 cells; [16]): 470.473 | MCC13_AUC (MCC13 cells (VN-MCC); [28]): 481.481 | MCC13_AUC (MCC13 cells (VN-MCC); [17]): 481.481 | MCC26_AUC (MCC26 cells (VN-MCC); [29]): 500.723 | MCC26_AUC (MCC26 cells (VN-MCC); [18]): 500.723 | HEK293T_AUC (HEK293T cells; [30]): 450.178 | HEK293T_AUC (HEK293T cells; [19]): 450.178 | VN-MCC_Avg_AUC ([5]; NPC library): 491.721 | Control-VN-MCC [5, 31]: -19.0227 | MKL1_AUC (MKL-1 cells (VP-MCC); [32]): 416.714 | MKL1_AUC (MKL-1 cells (VP-MCC); {}): 416.714

C[C@@H]1CN(CCCn2c3ccccc3c3ccccc32)C[C@H](C)N1.Cl.Cl [Rimcazole dihydrochloride]
MKL2_AUC (MKL-2 cells (VP-MCC); [20]): 350.893 | WAGA_AUC (WAGA cells (VP-MCC); [21]): 396.152 | MCC_Avg_AUC ([1]; NPC library): 415.095 | Control_Avg_AUC ([2]; NPC library): 450.496 | Control-MCC [3, 22]: 35.4016 | NIH3T3_AUC (NIH-3T3 cells; [23]): 464.02 | HACAT_AUC (HACAT cells; [24]): 421.634 | UISO_AUC (UISO cells (VN-MCC); [25]): 420.46 | VP-MCC_Avg_AUC ([4]; NPC library): 379.963 | Control-VP-MCC [4, 26]: 70.5333 | CRL7250_AUC (CRL-7250 cells; [27]): 463.168 | MCC13_AUC (MCC13 cells (VN-MCC); [28]): 472.84 | MCC26_AUC (MCC26 cells (VN-MCC); [29]): 457.379 | HEK293T_AUC (HEK293T cells; [30]): 453.163 | VN-MCC_Avg_AUC ([5]; NPC library): 450.226 | Control-VN-MCC [5, 31]: 0.27 | MKL1_AUC (MKL-1 cells (VP-MCC); [32]): 392.844
